The source made the active and inactive calls. The rule behind the calls is not given here.
Legend:
[1] = target: Intercellular adhesion molecule (ICAM-1), Integrin alpha-L/beta-2 (Homo sapiens, UniProt P05107+P05362+P20701); assay: (§1) Inhibition of LFA1 binding to full length soluble ICAM1 by gamma scintillation counter; assay type: protein-complex assay
[2] = target: Intercellular adhesion molecule (ICAM-1), Integrin alpha-L/beta-2 (Homo sapiens) (UniProt P20701+P05362+P05107); assay: as §1; assay type: protein-complex assay

Chain of Intercellular adhesion molecule (ICAM-1), Integrin alpha-L/beta-2 (P20701 whole entry): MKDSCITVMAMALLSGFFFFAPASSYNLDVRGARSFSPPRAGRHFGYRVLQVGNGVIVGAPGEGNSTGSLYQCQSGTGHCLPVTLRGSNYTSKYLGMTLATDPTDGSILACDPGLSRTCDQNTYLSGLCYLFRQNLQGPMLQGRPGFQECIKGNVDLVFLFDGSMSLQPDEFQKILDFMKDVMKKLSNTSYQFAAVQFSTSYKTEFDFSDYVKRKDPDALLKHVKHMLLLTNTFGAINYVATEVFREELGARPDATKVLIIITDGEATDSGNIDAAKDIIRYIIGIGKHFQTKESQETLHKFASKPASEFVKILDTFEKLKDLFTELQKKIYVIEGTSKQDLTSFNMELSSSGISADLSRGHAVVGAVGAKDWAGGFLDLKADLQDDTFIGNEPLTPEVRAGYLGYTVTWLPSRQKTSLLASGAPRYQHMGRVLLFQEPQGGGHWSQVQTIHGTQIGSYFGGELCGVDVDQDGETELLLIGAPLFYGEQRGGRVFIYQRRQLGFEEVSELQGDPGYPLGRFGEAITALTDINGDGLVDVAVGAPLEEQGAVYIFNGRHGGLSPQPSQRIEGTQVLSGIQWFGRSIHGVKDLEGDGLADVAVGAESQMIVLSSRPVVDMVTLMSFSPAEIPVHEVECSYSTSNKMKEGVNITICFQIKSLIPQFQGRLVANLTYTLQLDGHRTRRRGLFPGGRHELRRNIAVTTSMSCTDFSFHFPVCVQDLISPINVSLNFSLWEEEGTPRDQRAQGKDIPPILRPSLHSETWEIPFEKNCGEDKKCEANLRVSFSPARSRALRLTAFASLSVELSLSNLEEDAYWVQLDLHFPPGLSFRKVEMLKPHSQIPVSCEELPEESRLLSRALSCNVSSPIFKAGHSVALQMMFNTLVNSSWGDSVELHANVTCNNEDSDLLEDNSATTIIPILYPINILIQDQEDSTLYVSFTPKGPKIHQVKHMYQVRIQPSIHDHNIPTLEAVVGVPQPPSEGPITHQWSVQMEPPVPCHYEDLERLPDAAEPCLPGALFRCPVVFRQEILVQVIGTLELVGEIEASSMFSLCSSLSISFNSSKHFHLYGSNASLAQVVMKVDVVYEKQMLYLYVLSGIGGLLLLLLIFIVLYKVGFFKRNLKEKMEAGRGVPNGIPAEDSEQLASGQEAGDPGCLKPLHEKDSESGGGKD
Chain of Intercellular adhesion molecule (ICAM-1), Integrin alpha-L/beta-2 (P05362 whole entry): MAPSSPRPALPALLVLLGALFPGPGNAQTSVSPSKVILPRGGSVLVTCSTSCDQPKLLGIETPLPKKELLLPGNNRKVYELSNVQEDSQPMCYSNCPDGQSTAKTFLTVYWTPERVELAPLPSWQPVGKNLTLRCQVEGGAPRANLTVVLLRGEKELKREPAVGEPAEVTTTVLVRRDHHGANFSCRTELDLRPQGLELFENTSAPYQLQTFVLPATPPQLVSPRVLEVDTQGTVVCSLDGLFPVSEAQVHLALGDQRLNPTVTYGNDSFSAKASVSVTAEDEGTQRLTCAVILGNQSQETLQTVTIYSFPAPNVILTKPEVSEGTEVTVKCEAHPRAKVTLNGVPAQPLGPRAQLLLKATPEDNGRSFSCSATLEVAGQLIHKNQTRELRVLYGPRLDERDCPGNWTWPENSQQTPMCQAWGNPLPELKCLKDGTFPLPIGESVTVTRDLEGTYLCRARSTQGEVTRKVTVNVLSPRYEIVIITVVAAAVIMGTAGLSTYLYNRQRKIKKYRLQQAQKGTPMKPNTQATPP
Chain of Intercellular adhesion molecule (ICAM-1), Integrin alpha-L/beta-2 (P05107 whole entry): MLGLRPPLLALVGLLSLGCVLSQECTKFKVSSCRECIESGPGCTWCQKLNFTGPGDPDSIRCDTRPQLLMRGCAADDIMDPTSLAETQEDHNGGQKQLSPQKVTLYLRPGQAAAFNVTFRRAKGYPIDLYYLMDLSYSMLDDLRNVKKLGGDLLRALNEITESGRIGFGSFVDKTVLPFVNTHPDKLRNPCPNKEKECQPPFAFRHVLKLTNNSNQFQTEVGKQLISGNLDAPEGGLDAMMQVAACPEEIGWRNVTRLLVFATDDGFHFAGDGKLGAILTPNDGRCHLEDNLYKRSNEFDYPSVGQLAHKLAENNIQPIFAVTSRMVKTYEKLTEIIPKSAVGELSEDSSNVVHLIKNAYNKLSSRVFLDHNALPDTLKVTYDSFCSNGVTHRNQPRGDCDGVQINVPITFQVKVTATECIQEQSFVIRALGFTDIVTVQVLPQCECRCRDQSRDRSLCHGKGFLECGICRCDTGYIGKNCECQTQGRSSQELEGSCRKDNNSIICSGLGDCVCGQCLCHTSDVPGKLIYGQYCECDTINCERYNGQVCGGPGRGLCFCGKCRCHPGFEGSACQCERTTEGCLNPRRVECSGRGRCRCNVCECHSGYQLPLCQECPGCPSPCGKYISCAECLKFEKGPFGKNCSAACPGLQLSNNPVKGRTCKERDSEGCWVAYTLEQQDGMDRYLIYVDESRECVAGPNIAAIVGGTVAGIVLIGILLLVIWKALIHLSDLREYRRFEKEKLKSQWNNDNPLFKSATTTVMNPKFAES

C=C/C(C)=C/C[C@]1(C)[C@H]2C[C@@H](OC(=O)/C(C)=C/C)C[C@@H]3[C@H](OC(C)=O)OC(OC(C)=O)[C@@]32[C@H](O)C[C@@H]1C (some centres undefined) [CASEARINOL A]
IC50 [1]: 50 µM

C=C/C(C)=C/C[C@]1(C)[C@H]2C[C@@H](OC(=O)C(C)CC)C[C@@H]3[C@H](OC(C)=O)OC(OC(C)=O)[C@@]32[C@H](O)C[C@@H]1C (some centres undefined)
Activity [2]: Active

C=C/C(C)=C/C[C@]1(C)[C@H]2C[C@@H](OC(C)=O)C[C@@H]3[C@H](OC(C)=O)O[C@H](OC(C)=O)[C@@]32C(=O)C[C@@H]1C
Activity [2]: Active

C=C/C(C)=C\C[C@]1(C)[C@H]2C[C@@H](OC(C)=O)C[C@@H]3[C@H](OC(C)=O)O[C@H](OC(C)=O)[C@@]32C(=O)C[C@@H]1C
Activity [2]: Active

— ChEMBL document CHEMBL1158327, “Four new clerodane diterpenes from the leaves of Casearia guianensis which inhibit the interaction of leukocyte function antigen 1 with intercellular adhesion molecule 1” (J Nat Prod, 1997)
